For experiment [1], the target named is T1, adenosine A1 receptor (Rattus norvegicus, UniProt P25099).
T1 sequence (P25099 1-326): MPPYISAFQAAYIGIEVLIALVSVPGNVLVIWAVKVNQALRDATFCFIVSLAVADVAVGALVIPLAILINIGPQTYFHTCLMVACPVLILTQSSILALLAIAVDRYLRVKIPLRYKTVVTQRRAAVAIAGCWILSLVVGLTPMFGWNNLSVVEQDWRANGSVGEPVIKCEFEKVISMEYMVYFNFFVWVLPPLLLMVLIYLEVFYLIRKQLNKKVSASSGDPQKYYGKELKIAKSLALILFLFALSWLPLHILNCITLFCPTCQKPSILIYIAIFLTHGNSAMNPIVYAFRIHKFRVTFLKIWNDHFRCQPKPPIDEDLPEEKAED
Description: biochemical.

For experiment [2], the target named is T2, adenosine A3 receptor (Homo sapiens, UniProt P0DMS8).
T2 construct: expressed in transfected cells; host or cells: HEK-293
T2 sequence (P0DMS8 1-318): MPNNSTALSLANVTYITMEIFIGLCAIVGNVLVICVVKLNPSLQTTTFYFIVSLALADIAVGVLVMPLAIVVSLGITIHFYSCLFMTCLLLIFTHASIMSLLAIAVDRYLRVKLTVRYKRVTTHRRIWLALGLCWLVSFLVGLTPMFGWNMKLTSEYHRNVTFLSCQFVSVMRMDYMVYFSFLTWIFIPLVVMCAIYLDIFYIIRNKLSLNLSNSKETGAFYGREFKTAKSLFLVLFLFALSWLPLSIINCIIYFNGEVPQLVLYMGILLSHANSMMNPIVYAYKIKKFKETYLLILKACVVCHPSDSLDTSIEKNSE
The experiment can be described thus: biochemical. The following applies: [125I]AB-MECA, membrane of HEK-293 cells transformed with A3 receptor plasmid, read-out: Receptor binding capacity (IC50) Adenosine A3.

In experiment [3] the target is T3, adenosine A2 receptor (Rattus norvegicus, UniProt P30543).
T3 construct: from tissue
T3 sequence (P30543 whole entry): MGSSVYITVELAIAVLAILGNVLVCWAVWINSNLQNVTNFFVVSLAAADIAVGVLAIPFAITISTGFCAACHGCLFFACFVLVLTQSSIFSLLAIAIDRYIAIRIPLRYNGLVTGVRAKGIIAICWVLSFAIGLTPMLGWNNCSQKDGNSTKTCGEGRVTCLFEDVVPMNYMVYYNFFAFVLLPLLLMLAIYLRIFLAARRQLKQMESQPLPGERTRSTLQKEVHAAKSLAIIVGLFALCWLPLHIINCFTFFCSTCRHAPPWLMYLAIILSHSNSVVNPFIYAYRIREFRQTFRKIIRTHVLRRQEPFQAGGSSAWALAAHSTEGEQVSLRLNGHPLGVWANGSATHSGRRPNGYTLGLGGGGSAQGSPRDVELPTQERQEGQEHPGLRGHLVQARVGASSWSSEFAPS
Description: Adenosine A2 receptor binding capacity.

Where [4] appears, read: adenosine A2 receptor, read-out: Receptor binding capacity (IC50) Adenosine A2.

Where two headings read alike, the source gives them in different places.

The IC50 is the concentration at which inhibition is half-maximal.

Turning to `Cc1nc2[nH]cnc2c2nc(-c3ccccc3)nn12` [Example 1, 5-methyl-8-phenyl-1H-1,2,4-triazolo[5,1-i]purine], it took 101 nM to reach half-maximal inhibition in experiment [1] (IC50).
For the compound `COc1cc(-c2nc3c4[nH]cnc4nc(C)n3n2)cc(OC)c1OC` [Example 2], in experiment [2], the concentration for half-maximal inhibition (IC50) was found to be 96 nM.
Consider `Cc1nc2nc[nH]c2c2nc(-c3cccnc3)nn12` [Example 3], for which the IC50 in experiment [1] is 2600 nM; in experiment [3] (setting [4]), 3000 nM; in experiment [2] it was 95 nM.
Regarding `CCCCc1nc2[nH]cnc2c2nc(-c3ccc(C)cc3)nn12` [Example 5], the half-maximal inhibitory concentration (IC50) in experiment [3] (setting [4]) was found to be 184 nM.
Consider `CCCCc1nc2nc[nH]c2c2nc(-c3ccccc3O)nn12` [Example 6], for which the values for the IC50 in experiment [1], in experiment [3] (setting [4]) and in experiment [2] were 178 nM, 247 nM and under 1 nM, respectively.
`CCCCc1nc2[nH]cnc2c2nc(-c3cc(OC)c(OC)c(OC)c3)nn12` [Example 12, 5-n-butyl-8-(3,4,5-trimethoxyphenyl)-1H-1,2,4-triazolo[5,1-i]purine] yielded a half-maximal inhibitory concentration (IC50) in experiment [1] of 1000 nM.
Regarding `CCCCc1nc2[nH]cnc2c2nc(-c3cccnc3)nn12` [Example 13], 228 nM corresponded to half-maximal inhibition in experiment [1] (IC50).
Take `CCCCc1nc2[nH]cnc2c2nc(-c3ccco3)nn12` [Example 15]: the half-maximal inhibitory concentration (IC50) in experiment [1] is 42 nM.
Turning to `CCCCc1nc2nc[nH]c2c2nc(/C=C/c3ccccc3)nn12` [Example 17], the half-maximal inhibitory concentration (IC50) came to 1300 nM in experiment [1], 723 nM in experiment [3] (setting [4]) and 1.1 nM in experiment [2].
For `c1ccc(-c2nc3c4nc[nH]c4nc(-c4ccccc4)n3n2)cc1` [Example 18], in experiment [1], the IC50 came to 6.4 nM.
On to `COc1cc(-c2nc3c4[nH]cnc4nc(-c4ccccc4)n3n2)cc(OC)c1OC` [Example 19], for which the figures for the IC50 in experiment [1], in experiment [3] (setting [4]) and in experiment [2] were 93 nM, 546 nM and 1.5 nM, respectively.
As for `c1ccc(-c2nc3nc[nH]c3c3nc(-c4cccnc4)nn23)cc1` [Example 20], the IC50 in experiment [1] was found to be 21 nM; in experiment [3] (setting [4]) it was 31 nM; in experiment [2] it was 7.4 nM.
`CCCc1nc2nc[nH]c2c2nc(-c3ccccc3)nn12` [Example 23]: the half-maximal inhibitory concentration (IC50) in experiment [3] (setting [4]) stood at 115 nM.
Turning to `CCCCCc1nc2nc[nH]c2c2nc(-c3ccccc3)nn12` [Example 34, 5-pentyl-8-phenyl-1H-1,2,4-triazolo[5,1-i]purine], the half-maximal inhibitory concentration (IC50) in experiment [3] (setting [4]) is 205 nM.
In the case of `Cc1cccc(-c2nc3nc[nH]c3c3nc(-c4ccccc4)nn23)c1` [Example 35], the IC50 was 111 nM in experiment [3] (setting [4]) and under 1 nM in experiment [2].
Consider `CCCCCCCc1nc2nc[nH]c2c2nc(-c3ccccc3)nn12` [Example 37], for which the results for the concentration for half-maximal inhibition (IC50) in experiment [3] (setting [4]) and in experiment [2] were 3700 nM and 9 nM, respectively.
As to `CCCCc1nc2[nH]cnc2c2nc(-c3ccc(N(C)C)cc3)nn12` [Example 42], the 50% inhibitory concentration (IC50) in experiment [3] (setting [4]) was over 10000 nM.
Turning to `CCCCc1nc2[nH]cnc2c2nc(-c3ccc(OCCC)cc3)nn12` [Example 45], the IC50 in experiment [3] (setting [4]) was over 10000 nM.
As to `CCCCc1nc2nc[nH]c2c2nc(-c3ccc(OCc4ccccc4)cc3)nn12` [Example 49], the figures for the IC50 in experiment [3] (setting [4]) and in experiment [2] were over 10000 nM and 1.7 nM, respectively.
In the case of `CCCCc1nc2nc[nH]c2c2nc(-c3ccc(-c4ccccc4)cc3)nn12` [Example 50], the IC50 in experiment [3] (setting [4]) is over 10000 nM.
In the case of `CCCCc1nc2nc[nH]c2c2nc(-c3ccc(OC)c(OC)c3)nn12` [Example 51], the concentration for half-maximal inhibition (IC50) was over 10000 nM in experiment [3] (setting [4]) and 1.6 nM in experiment [2].
In the case of `CCCCc1nc2nc[nH]c2c2nc(-c3ccc(N(CC)CC)cc3)nn12` [Example 54], the figures for the IC50 in experiment [3] (setting [4]) and in experiment [2] were over 10000 nM and 7.8 nM, respectively.
For the compound `CCCCc1nc2nc[nH]c2c2nc(-c3ccc(OC(F)(F)F)cc3)nn12` [Example 58], the IC50 in experiment [3] (setting [4]) is over 10000 nM; in experiment [2], 5.8 nM.
For `CCCCc1nc2[nH]cnc2c2nc(-c3ccc(C(F)(F)F)cc3)nn12` [Example 59], the concentration for half-maximal inhibition (IC50) in experiment [3] (setting [4]) is over 10000 nM.
Take `CCCCc1nc2nc[nH]c2c2nc(-c3ccc(N(Cc4ccccc4)Cc4ccccc4)cc3)nn12` [Example 60]: the IC50 was over 10000 nM in experiment [3] (setting [4]) and 15 nM in experiment [2].
Taken in the same sequence, the figures for `CCCCc1nc2nc[nH]c2c2nc(-c3ccc(NCc4ccccc4)cc3)nn12` [Example 61] were 1800 nM and under 1 nM.
Regarding `CCCCc1nc2nc[nH]c2c2nc(-c3ccc(Oc4ccccc4)cc3)nn12` [Example 62], the half-maximal inhibitory concentration (IC50) in experiment [3] (setting [4]) was over 10000 nM; in experiment [2], 6.6 nM.
With `CCCCc1nc2nc[nH]c2c2nc(-c3ccc(NC)cc3)nn12` [Example 63], the half-maximal inhibitory concentration (IC50) in experiment [3] (setting [4]) was 2400 nM; in experiment [2] it was 1 nM.
Consider `CCCCc1nc2nc[nH]c2c2nc(-c3ccc4ccccc4c3)nn12` [Example 64], for which the IC50 in experiment [3] (setting [4]) was 716 nM; in experiment [2], under 1 nM.
For the compound `CCCCc1nc2nc[nH]c2c2nc(-c3ccc(CP(=O)(OCC)OCC)cc3)nn12` [Example 65], the IC50 in experiment [3] was over 10000 nM; in experiment [2], 3.7 nM.
As to `CCCCc1nc2nc[nH]c2c2nc(-c3ccc(SC)cc3)nn12` [Example 66], the concentration for half-maximal inhibition (IC50) in experiment [3] (setting [4]) is over 10000 nM.
Consider `CCCCc1nc2nc[nH]c2c2nc(-c3ccc(CC)cc3)nn12` [Example 67], for which the IC50 in experiment [3] (setting [4]) stood at 1800 nM; in experiment [2], 5.4 nM.
In the case of `CCCCc1nc2nc[nH]c2c2nc(-c3ccc(C(C)C)cc3)nn12` [Example 68], the half-inhibitory concentration (IC50) in experiment [3] (setting [4]) is over 10000 nM; in experiment [2] it was 5.1 nM.
With `CCCCc1nc2[nH]cnc2c2nc(-c3ccc(C(C)(C)C)cc3)nn12` [Example 69], the IC50 in experiment [3] (setting [4]) is over 10000 nM.

Source of the values: patent publication US6288070A, “Triazolopurine derivatives, medicinal composition containing the derivatives, adenosine A3 receptor compatibilizing agent, and asthmatic remedy” (Otsuka Pharmaceutical Factory, Inc., priority 1998, dated 2001).
